# Like-named read-outs stand apart in the source and are kept apart here. Marks after values point to notes of the source that are not given here.
# Key:
# plasma protein [1] = details: cited from earlier work
# LNCaP or PC3 xenografts = system: LNCaP or PC3 xenografts; design: method as in PMID 19706750, PMID 23733925; details: cited from earlier work; for TBR (tumor to muscle ratio) / blood concentration: 4 h post-injection; for TBR (tumor to muscle ratio): calculated from published tumor and skeletal muscle uptake
# PSMA = target: PSMA; design: method as in PMID 19706750, PMID 23733925; details: strongest affinity of all PSMA binders tested; cited from earlier work
# plasma protein [2] = assay: Plasma protein binding by Rapid Equilibrium Dialysis (RED); type: in vitro ADME; details: 12 kDa plate
# Description: Plasma protein interactions were quantified for commonly used, commercially available far-red and near-infrared fluorescent dyes. For IRDye 800CW, ZW800, BODIPY 650, Alexa Fluor 680, and integrin conjugates, a Rapid Equilibrium Dialysis (RED) plate (Thermo Scientific) was used following the manufacturer’s protocol.
# Rapid Equilibrium Dialysis (RED) was used to quantify plasma protein binding
# for various fluorescent dyes (carboxylate form) and fluorescent conjugates.
# are available with membrane molecular weight cutoffs of either 8 kDa or 12 kDa.
# that many of the fluorescent conjugates are >1 kDa, the 12 kDa plate were used to reduce
# The 12 kDa RED plate gave
compound,measurement,setting,value
O=C([O-])CN(CCN(CC(=O)[O-])CC(=O)[O-])CCN(CC(=O)[O-])CC(=O)[O-].[99Tc+4] [99mTc-DTPA],plasma protein binding,plasma protein [1],< 5%
CC1(C)C(/C=C/C=C/C=C/C=C2\N(CCCCS(=O)(=O)[O-])c3ccc4ccccc4c3C2(C)C)=[N+](CCCCS(=O)(=O)[O-])c2ccc3ccccc3c21.[Na+] [ICG dye],% Plasma Protein Bound,plasma protein [1]; estimates based on a subsaturating concentration of ICG,99.5–99.975 ^* %
O=C(O)CC[C@H](NC(=O)N[C@@H](CCCCNCc1ccc(I)cc1)C(=O)O)C(=O)O [MIP1072],TBR (tumor to muscle ratio),LNCaP or PC3 xenografts,171
same,blood concentration,LNCaP or PC3 xenografts,0.06 %ID/g
O=C(O)CC[C@H](NC(=O)N[C@@H](CCCCNC(=O)Nc1ccc(I)cc1)C(=O)O)C(=O)O [MIP1095],Kd,PSMA,0.24 nM
same,skeletal muscle uptake,LNCaP or PC3 xenografts; highest of the PSMA set,0.26 %ID/g
O=C(O)CC[C@H](NC(=O)N[C@@H](CCC(=O)N[C@@H](CCCCN(Cc1nccn1CC(=O)N(CC(=O)O)CC(=O)O)Cc1nccn1CC(=O)N(CC(=O)O)CC(=O)O)C(=O)O)C(=O)O)C(=O)O [MIP1404],TBR (tumor to muscle ratio),LNCaP or PC3 xenografts,157
same,blood concentration,LNCaP or PC3 xenografts,0.02 %ID/g
O=C(O)CC[C@H](NC(=O)N[C@@H](CCC(=O)NC(CCCCN(Cc1nccn1CC(=O)O)Cc1nccn1CC(=O)O)C(=O)O)C(=O)O)C(=O)O (stereo partly shown) [MIP1427],TBR (tumor to muscle ratio),LNCaP or PC3 xenografts,31
same,blood concentration,LNCaP or PC3 xenografts,0.28 %ID/g
CC1(C)C(=CC=CC=CC=CC2=[N+](CCCCS(=O)(=O)[O-])c3ccc(C(=O)NC[C@H](O)[C@@H](O)[C@H](O)C(O)CO)cc3C2(C)C)N(CCCCS(=O)(=O)[O-])c2ccc(C(=O)NCC(O)C(O)C(O)[C@H](O)CO)cc21.[Na+] (stereo partly shown) [SIDAG dye],% Plasma Protein Bound,"plasma protein [1]; reported bound fraction in the plasma, discussed in SI",57 ^* %
IRDye 800CW carboxylate,% Plasma Protein Bound,plasma protein [2],89 ± 3%
Inulin,plasma protein binding,"plasma protein [1]; classic example, no reference given",no measurable plasma protein binding

# From publication PMC4857130, “Mechanistic and quantitative insight into cell surface targeted molecular imaging agent design” (Scientific Reports, 2016)
